Test results as given in the supplement of paper PMC10307832.

What was measured:
Experiment in all cases: relative viability (nuclei count vs DMSO), 5 days (fraction); higher = more cells survive
[1] = compound: COC1=CC=C(C=C1)CN2C=CC3=C2C=C(C=C3)C(=O)NO + COc1cccc2cc(-c3nc([C@H]4CC[C@H](C(=O)O)CC4)n4ncnc(N)c34)[nH]c12 [OSI-027] (partner 0.5 µM)
Method in brief: (§1)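 Relative viability is defined as nuclei in treated wells over nuclei in vehicle wells. Duplicate plates were run and medians reported. Lung cancer cell lines in 1536-well plates were dosed by pin tool one day after seeding, with one drug or with a fixed anchor-drug dose plus five library-drug doses (not always all listed) in √10 steps, and nuclei were counted after 5 days.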

Veliparib + Lapatinib = compound: C[C@]1(c2nc3c(C(N)=O)cccc3[nH]2)CCCN1 [Veliparib] + CS(=O)(=O)CCNCc1ccc(-c2ccc3ncnc(Nc4ccc(OCc5cccc(F)c5)c(Cl)c4)c3c2)o1 [Lapatinib] (partner 2 µM)
Method in brief: as §1

Veliparib + Dasatinib = compound: C[C@]1(c2nc3c(C(N)=O)cccc3[nH]2)CCCN1 [Veliparib] + Cc1nc(Nc2ncc(C(=O)Nc3c(C)cccc3Cl)s2)cc(N2CCN(CCO)CC2)n1 [Dasatinib] (partner 0.075 µM)
Method in brief: as §1

[2] = compound: COC1=CC=C(C=C1)CN2C=CC3=C2C=C(C=C3)C(=O)NO + CS(=O)(=O)N1CCN(Cc2cc3nc(-c4cccc5[nH]ncc45)nc(N4CCOCC4)c3s2)CC1 [Pictilisib] (partner 1 µM)
Method in brief: as §1

Cell Line	relative viability ([1]; first compound 0.253 µM)	relative viability ([1]; first compound 0.8 µM)	relative viability ([1]; first compound 2.53 µM)	relative viability ([1]; first compound 8 µM)	relative viability (Veliparib + Lapatinib; first compound 0.02 µM)	relative viability (Veliparib + Lapatinib; first compound 0.06325 µM)	relative viability (Veliparib + Lapatinib; first compound 0.2 µM)	relative viability (Veliparib + Lapatinib; first compound 0.6325 µM)	relative viability (Veliparib + Lapatinib; first compound 2 µM)	relative viability (Veliparib + Dasatinib; first compound 0.06325 µM)	relative viability (Veliparib + Dasatinib; first compound 0.2 µM)	relative viability (Veliparib + Dasatinib; first compound 0.6325 µM)	relative viability (Veliparib + Dasatinib; first compound 2 µM)	relative viability ([2]; first compound 0.253 µM)	relative viability ([2]; first compound 0.8 µM)	relative viability ([2]; first compound 2.53 µM)	relative viability ([2]; first compound 8 µM)	relative viability ([1]; first compound 0.08 µM)	relative viability (Veliparib + Dasatinib; first compound 0.02 µM)	relative viability ([2]; first compound 0.08 µM)
LK-2	0.289	0.244	0.195	0.208	0.637	0.814	1.11	0.877	0.643	0.266	0.258	0.325	0.291	0.524	0.598	0.507	0.488	–	–	–
H3255	0.58	0.606	0.545	0.553	0.227	0.209	0.27	0.289	0.261	0.344	0.253	0.402	0.32	0.411	0.416	0.436	0.467	0.473	0.303	0.428
NCI-H727	0.576	0.513	0.809	0.534	0.388	0.759	0.9	0.876	0.734	0.365	0.305	0.47	0.331	0.299	0.553	0.306	0.488	0.592	0.267	0.344
NCI-H2405	0.65	0.638	0.664	0.606	–	0.941	1.09	1.14	1.26	0.171	0.225	0.244	0.222	0.378	0.532	0.405	0.331	0.633	0.225	0.316
RERF-LC-KJ	0.594	0.662	0.617	0.495	0.839	0.82	0.853	0.813	0.854	0.865	0.845	0.767	0.755	0.571	0.511	0.608	0.472	0.589	0.574	0.468
NCI-H1734	0.641	0.558	0.608	0.527	1.16	0.982	0.933	0.981	1.12	0.473	0.569	0.443	0.505	0.487	0.437	0.384	0.416	–	0.523	–
HCC-827	0.712	0.81	0.791	0.761	0.199	0.191	0.182	0.177	0.191	0.302	0.266	0.205	0.364	0.921	1.07	1.15	0.927	0.766	0.362	0.934
NCI-H520	0.278	0.329	0.319	0.279	0.986	0.859	0.912	0.733	0.858	0.233	0.176	0.168	0.188	0.266	0.314	0.276	0.271	0.218	0.194	0.265
NCI-H1792	0.811	0.745	0.802	0.616	0.922	0.719	0.962	0.983	0.832	0.79	0.822	0.707	0.717	0.314	0.297	0.326	0.209	0.722	0.79	0.301
NCI-H2126	0.775	0.696	0.797	0.743	0.797	0.687	0.726	0.775	0.729	0.539	0.612	0.658	0.668	0.496	0.53	0.558	0.443	0.685	0.618	0.479
EPLC-272H	–	0.313	0.257	0.267	–	0.71	0.988	1.1	0.877	0.367	0.323	0.325	0.36	0.333	0.341	0.287	0.218	0.223	0.291	0.233
HCC-366	1.03	0.978	0.896	0.772	1.06	0.897	0.929	0.974	1.09	0.514	0.582	0.572	0.588	0.165	0.137	0.136	0.15	0.486	0.524	0.139
EKVX	0.653	0.72	0.72	0.64	0.19	0.203	0.217	0.201	0.231	0.658	0.66	0.532	0.48	0.443	0.424	0.522	0.439	0.669	–	0.327
NCI-H1395	0.579	0.628	0.667	0.549	–	0.76	0.874	0.716	0.83	0.381	0.46	0.414	0.437	0.653	0.58	0.583	0.505	0.562	0.379	0.683
201T	0.827	0.644	–	0.71	1	1.03	1.04	1.05	0.995	0.572	0.537	0.614	0.52	0.716	0.752	0.725	0.683	0.869	0.529	0.687
LC-2-ad	0.853	0.826	0.979	0.671	–	0.813	0.967	0.94	0.951	0.423	0.669	0.556	0.388	0.597	0.547	0.439	0.427	0.793	–	0.437
